Measured values from patent US20040019092A1, “Non-peptide somatostatin receptor ligands” (priority 2001, published 2004).
Where “and” joins values, the source holds several entries; their conditions need not be identical. Equal entries are not always repeated. Where two headings read alike, the source gives them in different places.

How the values were obtained:
[1] = target: T1, SS-1 sites (sst2 receptors) (Rattus norvegicus, UniProt P30680); assay: Ex-vivo binding of [^125I]-labeled Tyr^3 analogue of Octreotride (SS-1/sst2) in rat cortex and hippocampus after s.c. dosing; set-up: species or system Wistar rats; details: for NS non specific binding, individual animals / NS non specific binding, mean / SB specific binding, individual animals / SB specific binding, mean / TB total binding, individual animals / TB total binding, mean / percent specific binding remaining compared to controls: Tyr^3-Oct, 60 min
T1 construct: from tissue; host or cells: Wistar rat cerebral cortex and hippocampus homogenate
T1 sequence (P30680 whole entry): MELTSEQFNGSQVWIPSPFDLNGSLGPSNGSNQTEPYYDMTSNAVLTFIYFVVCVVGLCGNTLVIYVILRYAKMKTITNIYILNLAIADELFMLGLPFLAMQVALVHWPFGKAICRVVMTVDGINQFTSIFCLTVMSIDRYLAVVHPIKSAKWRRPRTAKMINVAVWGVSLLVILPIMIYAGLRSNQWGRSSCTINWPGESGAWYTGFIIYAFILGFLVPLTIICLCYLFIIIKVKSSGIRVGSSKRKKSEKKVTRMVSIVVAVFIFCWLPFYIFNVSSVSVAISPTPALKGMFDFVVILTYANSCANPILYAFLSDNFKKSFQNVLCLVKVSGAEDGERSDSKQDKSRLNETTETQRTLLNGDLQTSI
Experimental: Ex-vivo binding was used to determine to whether compound 14 (a potent sst2 receptor selective hydantoin) when applied peripherally to rates can cross the blood brain barrier, as robust behavioral models are not fully characterized and blood-brain penetration models are not routinely available. […] The rats were given saline or drug sub-cutaneously at the indicated dose (in saline) and killed 60 minutes after application with CO2. The brain was removed and placed on ice; the cerebral cortex and hippocampus were dissected out and weighted. […] The homogenate was stored on ice and used immediately or deep frozen (-70° C.) until used (1-3 days). […] The filters were dried and counted in a Wallac Beta plate counter. The tables list the effects of compound 14 on cortex (Table 6) and hippocampus (Table 7) binding at the doses and times indicated (see also FIGS. 3 and 4). TB=total binding, NS=non specific binding, SB=specific binding. The values are indicated in cpm for individual animals, mean, n=number of animals, sem=standard error of the mean; percent=% specific binding remaining following treatment compared to controls.

[2] = Brain penetration in rat after 48-hour intravenous infusion; assay type: in vivo; details: rats; for concentration at 48 h / Kp at 48 h: male, rat, iv, 100 μg/h; for Kp at 48 h: brain/whole blood
Experimental: The in vivo brain penetration of compound 42 after a 48-hour intravenous infusion was assessed. [^14C]-42-ch was intravenously administered to 5 male rats at a loading dose of 0.3 mg(-b)/rat and then infused at a constant rate of 100 μg(-b)/h for 48 hours using a syringe pump connected to the femoral vein. Immediately after stopping the infusion, the rats were sacrificed. Blood and brain were collected and analyzed for total radioactivity and unchanged compound 42.

[3] = male, Wistar, rat, in vivo, iv
Experimental: The pharmacokinetic study was performed with 3 male Wistar rats (BRL) weighing 300-330 g with a one week interval between administration phases. The day before the first dosing, the rats underwent surgical implantation of an in-dwelling cannula; the right femoral artery was cannulated and the tube was passed subcutaneously to emerge at the back of the neck. The animals were individually housed in metabolism cages and fasted overnight before administrations.
The dose solution was administered (5 mL/kg) by gastric incubation.
The dose solution was administered (2 mL/kg) into the surgically exposed femoral vein.
During the study, 18 blood samples (100-500 μL) were taken, up to 48 hours post-dose from the cannulated femoral artery representing a total volume of 5.7 mL blood. The loss of blood was compensated by infusion of 6 times 1 mL of blood from donor rats. Urine samples were collected up to 48 hours post-dose. For the analysis of the in vivo brain distribution, 3 male rats were intravenously dosed (1 mg/kg or 72 μCi/kg) as described above. At 0.5 hours after administration, the rats were sacrificed; blood and brain were collected.
Determination of radioactivity in blood, plasma, brain homogenates and in urine, was carried out by direct liquid scintillation counting. Prior to radiometric determination, blood and tissue were solubilized in Solutron (Kontron Instruments, Zurich, Switzerland). After adding 10 mL of scintillation cocktail (Lumasafe, Lumac, Landgraaf, the Netherlands), all samples were counted in Tri-carb liquid scintillation analyzer (Canberra Packard, IL).
The procedure involved the addition of 5 μg of non-radiolabeled 42 to each blood sample as an internal standard. After adding 1 mL of acetonitrile, the sample was mixed with a Polytron mixer and centrifuged (234000×g, 30 minutes) in a Beckman centrifuge (Model TL100). The supernatant was evaporated in a vacuum centrifuge (Univapo 150H, Zivy). The residue was reconstituted in 250 μL of mobile phase-water (3:1 v/v) and centrifuged (3000×g, 60 s). The supernatant (200 μL) was injected onto HPLC. […] Compound 42 was separated from potential metabolites and endogenous compounds on a RP18 endcapped Superspher column, 125 mm×4 mm (Merck) at 45° C. The mobile phase consisted of 0.1% tetramethylammonium hydroxide—acetonitrile (500:500 v/v). The flow rate was 1 mL/min; the effluent was monitored at 260 nm. […] The limit of quantification was 0.3 ng/mL.
The peeling method was applied to describe the data by a compartment model approach, characterized by the following equation: C═C1*e^λ1−t+C2*e^λ2−t. The initial estimates of C1, λ1, C2, λ2 were taken to generate the best fit using the computer software ELSFIT. The estimates for half-lives were calculated as T1/2λi=ln2/λi.

[4] = Capillary depletion of brain hemispheres; assay type: in vivo, rat; details: n=3 rats
Experimental: The brain extraction ratio E was calculated from E=BUI*0.62, where 0.62 represents the brain extraction ratio of tritiated water (Pardridge, W. M. et al. “Absence of albumin receptor on brain capillaries in vivo or in vitro” Am. J. Physiol, 1985, 249, E264-E267). In order to quantify a possible sequestration of [^14C]-42 by the brain microvasculature, the brain hemispheres of 3 rats were submitted to capillary depletion (Triguero, D, et al. “Capillary depletion method for quantifying the blood-brain barrier transcytosis of circulating peptides and plasma proteins” J. Neurochem, 1990, 54, 1882-1888). The ^14C-radioactivity observed in the pellet (capillary bed/endothelial cells and pericytes) was compared to the ^14C-radioactivity observed in the supernatant (transcytosis space/interstitial fluid).

[5] = In vitro blood distribution; assay type: in vitro ADME; details: rat blood, 5-5000 ng/mL
Experimental: In vitro blood distribution and plasma protein binding. For blood distribution studies, fresh, heparinized rat blood (n=3) was spiked with [^14C]-42 to achieve the final concentrations of 5, 50, 500 and 5000 ng/mL. After a 30-minutes incubation at 4° C., 22° C. and 37° C., the samples were centrifuged (1600×g, 10 minutes, at the incubation temperature) to get plasma. The fraction free of 42 in plasma of rat and human was determined by equilibrium dialysis. Phosphate buffer was spiked with [^14C]-42 (50, 500, 5000 ng/mL) and dialyzed versus blank rat and human plasma at 37° C. for 2 hours. The radioactivity was determined in spiked blood samples, in plasma obtained after centrifugation and in both compartments after dialysis.

[6] = 48 hours i.v. infusion 100 μg/h

In the case of `Cc1cccc2c(CC3C(=O)N(CCCCCN)C(=O)N3S(=O)(=O)c3ccc(Oc4ccc(O)cc4)c(C#N)c3)c[nH]c12` (stereo not drawn) [Compound 14], the “maximal decrease of sst2 (SS-1) binding” value ([1]; cortex and hippocampus, 10 mg/kg subcutaneous, 60 minutes) is reported as “about 20%”, the “NS non specific binding, individual animals” value ([1]; cortex, 0.3 mg/kg s.c.) is reported as 2753 cpm and 2634 cpm and 2685 cpm and the “NS non specific binding, mean” value ([1]; cortex, 0.3 mg/kg s.c.) is reported as 2691 cpm. The “SB specific binding, individual animals” value ([1]; cortex, 0.3 mg/kg s.c.) was 22427 cpm and 21257 cpm and 23789 cpm, the “SB specific binding, mean” value ([1]; cortex, 0.3 mg/kg s.c.) was 22491 cpm and the “TB total binding, individual animals” value ([1]; cortex, 0.3 mg/kg s.c.) was 25180 cpm and 23891 cpm and 26474 cpm. The “TB total binding, mean” value ([1]; cortex, 0.3 mg/kg s.c.) was 25182 cpm, the “percent specific binding remaining compared to controls” value (“percent specific binding remaining” for short) ([1]; cortex, 0.3 mg/kg s.c.) was 98% and the “NS non specific binding, individual animals” value ([1]; cortex, 1 mg/kg s.c.) was 2623 cpm and 2705 cpm and 2642 cpm. For the same molecule, the “NS non specific binding, mean” value ([1]; cortex, 1 mg/kg s.c.) was 2657 cpm, the “SB specific binding, individual animals” value ([1]; cortex, 1 mg/kg s.c.) was 19722 cpm and 23378 cpm and 21824 cpm and the “SB specific binding, mean” value ([1]; cortex, 1 mg/kg s.c.) was 21641 cpm. For the same molecule, the “TB total binding, individual animals” value ([1]; cortex, 1 mg/kg s.c.) was 22345 cpm and 26063 cpm and 24466 cpm, the “TB total binding, mean” value ([1]; cortex, 1 mg/kg s.c.) was 24298 cpm and the “percent specific binding remaining” value ([1]; cortex, 1 mg/kg s.c.) was 94%. The “NS non specific binding, individual animals” value ([1]; cortex, 3 mg/kg s.c.) was 2519 cpm and 2511 cpm and 2559 cpm, the “NS non specific binding, mean” value ([1]; cortex, 3 mg/kg s.c.) was 2530 cpm and the “SB specific binding, individual animals” value ([1]; cortex, 3 mg/kg s.c.) was 20444 cpm and 19624 cpm and 21700 cpm. For the same molecule, the “SB specific binding, mean” value ([1]; cortex, 3 mg/kg s.c.) was 20658 cpm, the “TB total binding, individual animals” value ([1]; cortex, 3 mg/kg s.c.) was 22963 cpm and 22335 cpm and 24259 cpm and the “TB total binding, mean” value ([1]; cortex, 3 mg/kg s.c.) was 23186 cpm. The “percent specific binding remaining” value ([1]; cortex, 3 mg/kg s.c.) was 90%, the “NS non specific binding, individual animals” value ([1]; cortex, 10 mg/kg s.c.) was 2527 cpm and 2575 cpm and 2740 cpm and the “NS non specific binding, mean” value ([1]; cortex, 10 mg/kg s.c.) was 2614 cpm. The “SB specific binding, individual animals” value ([1]; cortex, 10 mg/kg s.c.) was 19525 cpm and 18340 cpm and 19640 cpm, the “SB specific binding, mean” value ([1]; cortex, 10 mg/kg s.c.) was 19168 cpm and the “TB total binding, individual animals” value ([1]; cortex, 10 mg/kg s.c.) was 22052 cpm and 20915 cpm and 22380 cpm. The “TB total binding, mean” value ([1]; cortex, 10 mg/kg s.c.) was 21782 cpm, the “percent specific binding remaining” value ([1]; cortex, 10 mg/kg s.c.) was 84% and the “NS non specific binding, individual animals” value ([1]; hippocampus, 0.3 mg/kg s.c.) was 2116 cpm and 2294 cpm and 2092 cpm. The “NS non specific binding, mean” value ([1]; hippocampus, 0.3 mg/kg s.c.) was 2167 cpm, the “SB specific binding, individual animals” value ([1]; hippocampus, 0.3 mg/kg s.c.) was 12566 cpm and 13303 cpm and 16338 cpm and the “SB specific binding, mean” value ([1]; hippocampus, 0.3 mg/kg s.c.) was 14069 cpm. The “TB total binding, individual animals” value ([1]; hippocampus, 0.3 mg/kg s.c.) was 14682 cpm and 15597 cpm and 18430 cpm, the “TB total binding, mean” value ([1]; hippocampus, 0.3 mg/kg s.c.) was 16238 cpm and the “percent specific binding remaining” value ([1]; hippocampus, 0.3 mg/kg s.c.) was 113%. The “NS non specific binding, individual animals” value ([1]; hippocampus, 1 mg/kg s.c.) was 2144 cpm and 1953 cpm and 1913 cpm, the “NS non specific binding, mean” value ([1]; hippocampus, 1 mg/kg s.c.) was 2003 cpm and the “SB specific binding, individual animals” value ([1]; hippocampus, 1 mg/kg s.c.) was 12048 cpm and 15010 cpm and 14100 cpm. For the same molecule, the “SB specific binding, mean” value ([1]; hippocampus, 1 mg/kg s.c.) was 13719 cpm, the “TB total binding, individual animals” value ([1]; hippocampus, 1 mg/kg s.c.) was 14192 cpm and 16963 cpm and 16013 cpm and the “TB total binding, mean” value ([1]; hippocampus, 1 mg/kg s.c.) was 15723 cpm. For the same molecule, the “percent specific binding remaining” value ([1]; hippocampus, 1 mg/kg s.c.) was 110%, the “NS non specific binding, individual animals” value ([1]; hippocampus, 3 mg/kg s.c.) was 1859 cpm and 1984 cpm and 1959 cpm and the “NS non specific binding, mean” value ([1]; hippocampus, 3 mg/kg s.c.) was 1934 cpm. For the same molecule, the “SB specific binding, individual animals” value ([1]; hippocampus, 3 mg/kg s.c.) was 11172 cpm and 9232 cpm and 10980 cpm, the “SB specific binding, mean” value ([1]; hippocampus, 3 mg/kg s.c.) was 10461 cpm and the “TB total binding, individual animals” value ([1]; hippocampus, 3 mg/kg s.c.) was 13031 cpm and 11216 cpm and 12939 cpm. The “TB total binding, mean” value ([1]; hippocampus, 3 mg/kg s.c.) was 12395 cpm, the “percent specific binding remaining” value ([1]; hippocampus, 3 mg/kg s.c.) was 84% and the “NS non specific binding, individual animals” value ([1]; hippocampus, 10 mg/kg s.c.) was 1886 cpm and 2078 cpm and 2037 cpm. The “NS non specific binding, mean” value ([1]; hippocampus, 10 mg/kg s.c.) was 2000 cpm, the “SB specific binding, individual animals” value ([1]; hippocampus, 10 mg/kg s.c.) was 11059 cpm and 10041 cpm and 8937 cpm and the “SB specific binding, mean” value ([1]; hippocampus, 10 mg/kg s.c.) was 10012 cpm. For the same molecule, the “TB total binding, individual animals” value ([1]; hippocampus, 10 mg/kg s.c.) was 12945 cpm and 12119 cpm and 10974 cpm, the “TB total binding, mean” value ([1]; hippocampus, 10 mg/kg s.c.) was 12013 cpm and the “percent specific binding remaining” value ([1]; hippocampus, 10 mg/kg s.c.) was 80%.
Work on `N#Cc1cc(S(=O)(=O)N2C(=O)N(CCCCCN)C(=O)C2Cc2c[nH]c3ccccc23)ccc1Oc1ccc(N)cc1` (stereo not drawn) [Compound 42] yielded a concentration at 48 h ([2]; brain, 48 hours i.v. infusion 100 μg/h, read-out: Concentration in brain, MEAN ± SD) of 18 ± 7 ng/g, a Kp at 48 h ([2]; 48 hours i.v. infusion 100 μg/h, read-out: Brain/Blood Ratio, MEAN ± SD) of 0.27 ± 0.07 and a Kp at 48 h ([2]; 48 hours i.v. infusion 100 μg/h, read-out: Brain/Blood Ratio, individual animals) of 0.27. It also gave a concentration at 48 h ([2]; whole blood, 48-hours i.v. infusion of 100 μg/h, read-out: blood concentration) of 66 ± 14 ng/mL, a concentration at 48 h ([2]; whole blood, 48 hours i.v. infusion 100 μg/h, read-out: Concentration in blood, MEAN ± SD) of 66 ± 14 ng/g and a concentration at 48 h ([2]; whole blood, 48 hours i.v. infusion 100 μg/h, read-out: Concentration in blood, individual animals) of 59 ng/g. The “Brain/Blood Ratio, MEAN ± SD” value [2, 6] was 0.27 ± 0.07, the “Brain/Blood Ratio, individual animals” value [2, 6] was 0.27 and 0.38 and 0.21 and 0.22 and the “Concentration in brain, MEAN ± SD” value [2, 6] was 18 ± 7 ng/g. The “Concentration in brain, individual animals” value [2, 6] was 16 ng/g (2×) and 21 ng/g and 29 ng/g and 10 ng/g, the “AUC ratio parent drug/radioactivity” value [3] was 0.7 and the “f2 (fraction of dose eliminated within λ2)” value [3] was 67%. The “fraction taken up by capillaries, of the brain penetration” value [4] was 5%, the “proportion present in plasma at 4° C.” value ([5]; 4° C.) was 69-92% and the “proportion present in plasma at 37° C.” value ([5]; 37° C.) was 40-60%.
